Measured values from US20140235568A1, “GEMCITABINE AMIDE DERIVATIVE AND PREPARATION METHOD AND USE THEREOF” (priority 2011, published 2014).
Converted amounts (≈) assume the structure as drawn. Like-named read-outs stand apart in the source and are kept apart here.

Key:
[1] = system: hepatitis C virus; conditions: patients, minimum dose, within a few days (1-2 days in some cases); cited from earlier work
[2] = system: HCT116 (human colon cancer cells); assay: MTT assay, in vitro inhibition of proliferation of human tumor cells; format: cell-based; conditions: for IC50: Homo sapiens, HCT-116, 72 h; for HCT116 100 μg/ml IC %: inhibition at 100 μg/ml, 72 h
Protocol: (§1) The tumor cell lines used in the experiments were as follows: A549 (human lung cancer cells), HCT116 (human colon cancer cells), HepG2 (human hepatoma cells), ZR-75-30 (human breast cancer cell), purchased from Shanghai Institute of Pharmaceutical Industry.
(§2) The sample was dissloved in DMSO (Merck), and PBS was added to prepare a 1000 μg/mL of solution or a uniform suspension. And then, DMSO-containing PBS (−) was added to dilute the solution or suspension. The positive control medicaments were gemcitabine (GEM) and LY2334737 developed by Eli Lilly and Company.
(§3) MTT assay: 100 μL cell suspension (4˜5×10^4 cells/mL) was added into each well of 96-well plate, and cultured in 37° C., 5% CO2 incubator. After 24 h, the sample solution was added in duplicate, 10 μL/well, and incubated at 37° C., 5% CO2 for 72 h. 20 μL MTT solution (5 mg/mL) was added into each well. After 4 h, a dissolving solution was added, 100 μL/well. The plate was placed into the incubator. After dissolved, OD value at 570 nm was measured on MK-2 automatic microplate reader.

[3] = system: HepG2 (human hepatoma cells); assay: as above; format: cell-based; conditions: for IC50: Homo sapiens, HepG2, 72 h; for HepG2 100 μg/ml IC %: inhibition at 100 μg/ml, 72 h
Protocol: as §1, §2, §3

[4] = system: A549 (human lung cancer cells); assay: as above; format: cell-based; conditions: for IC50: Homo sapiens, A549, 72 h; for A549 100 μg/ml IC %: inhibition at 100 μg/ml, 72 h
Protocol: as §1, §2, §3

[5] = system: ZR-75-30 (human breast cancer cell); assay: as above; format: cell-based; conditions: for IC50: Homo sapiens, ZR-75-30, 72 h; for ZR-75-30 100 μg/ml IC %: inhibition at 100 μg/ml, 72 h
Protocol: as §1, §2, §3

[6] = system: human colon cancer cells HCT116 xenografts; assay: In vivo antitumor activity test, xenografts in nude mice; conditions: dosed 0.1-10 mg/kg body weight, better than LY2334737 at the same dose
Protocol: Some of the compounds were tested in vivo using human colon cancer cells HCT116 xenografts in nude mice according to a literature method (Wei Hong, Medical Laboratory Animal Science, Sichuan Science and Technology Press, 2nd edition, Chengdu, 2001, 595-596).

[7] = system: NCI 60 human tumor cells; assay: NCI in vitro cytotoxic activity screening; format: cell-based; conditions: for GI50: Homo sapiens, derived from MGM; for MGM: NCI 60 human tumor cells, GI50 in M (log)
Protocol: The cytotoxic activities of Compounds SYN-141 and SYN-165 were assayed in NCI systemactically.

| Structure (SMILES) | reduction of hepatitis C viral load [1] | IC50 [2] | HCT116 100 μg/ml IC % [2] | IC50 [3] | HepG2 100 μg/ml IC % [3] | IC50 [4] | A549 100 μg/ml IC % [4] | IC50 [5] | ZR-75-30 100 μg/ml IC % [5] | melting point | in vivo antitumor activity [6] | GI50 ([7]; read-out: total average GI50 against 60 human tumor cell lines) | MGM [7] | GI50 ([7]; read-out: total average GI50 against 60 human tumor cells) |
| --- | --- | --- | --- | --- | --- | --- | --- | --- | --- | --- | --- | --- | --- | --- |
| Nc1ccn([C@@H]2O[C@H](CO)[C@@H](O)C2(F)F)c(=O)n1 [GEM, gemcitabine] | ≥ 2 logarithmic unit | 0.0237 µg/mL (≈ 0.09 µM) | 78.07% | 0.263 µg/mL (≈ 0.999 µM) | 53.34% | 3.74 µg/mL (≈ 14.2 µM) | 57.57% | 0.454 µg/mL (≈ 1.72 µM) | 96.60% | – | – | – | – | – |
| CCCC(CCC)C(=O)Nc1ccn([C@@H]2O[C@H](CO)[C@@H](O)C2(F)F)c(=O)n1 [LY-2334737, N4-valproyl gemcitabine, reference compound] | – | 3.81 µg/mL (≈ 9.78 µM) | 84.51% | 1.78 µg/mL (≈ 4.57 µM) | 67.52% | 18.3 µg/mL (≈ 46.9 µM) | 60.05% | 29.3 µg/mL (≈ 75.3 µM) | 78.36% | – | – | – | – | – |
| CCCC(=O)Nc1ccn([C@@H]2O[C@H](CO)C(O)C2(F)F)c(=O)n1 (stereo partly drawn) [SYN-140, N^4-n-butyryl gemcitabine] | – | 0.395 µg/mL (≈ 1.19 µM) | 87.79% | 84.4 µg/mL (≈ 253 µM) | 50.42% | 4.26 µg/mL (≈ 12.8 µM) | 64.84% | 3.01 µg/mL (≈ 9.03 µM) | 89.52% | 198 °C | potent in vivo antitumor activity | – | – | – |
| O=C(CCCc1ccccc1)Nc1ccn([C@@H]2O[C@H](CO)C(O)C2(F)F)c(=O)n1 (stereo partly drawn) [SYN-141, N^4-(4-phenyl)butyryl Gemcitabine] | – | 0.269 µg/mL (≈ 0.657 µM) | 92.46% | 7.2 µg/mL (≈ 17.6 µM) | 62.48% | 5.6 µg/mL (≈ 13.7 µM) | 56.38% | 4.7 µg/mL (≈ 11.5 µM) | 91.63% | 111 °C | potent in vivo antitumor activity | 620 nM | −6.21 | – |
| CCCCC(=O)Nc1ccn([C@@H]2O[C@H](CO)C(O)C2(F)F)c(=O)n1 (stereo partly drawn) [SYN-147, N^4-n-valeryl Gemcitabine Gemcitabine] | – | 0.193 µg/mL (≈ 0.556 µM) | 88.14% | 0.246 µg/mL (≈ 0.708 µM) | 59.49% | 7.82 µg/mL (≈ 22.5 µM) | 58.09% | 1.13 µg/mL (≈ 3.25 µM) | 90.22% | 184 °C | potent in vivo antitumor activity | – | – | – |
| CCCCCCCC(=O)Nc1ccn([C@@H]2O[C@H](CO)C(O)C2(F)F)c(=O)n1 (stereo partly drawn) [SYN-165, N^4-n-octanoyl Gemcitabine] | – | 0.154 µg/mL (≈ 0.395 µM) | 99.01% | 0.123 µg/mL (≈ 0.316 µM) | 77.90% | 42.5 µg/mL (≈ 109 µM) | 55.82% | 0.135 µg/mL (≈ 0.347 µM) | 96.30% | 139 °C | potent in vivo antitumor activity | – | −7.12 | 75.8 nM |
